Experimental data published in patent US20050245543A1, “Histamine-3 receptor antagonists” (Pfizer Inc, priority 2004, published 2005).
Structures can show the parent of a compound that is named as a salt.

biological target: T1, rat histamine H3 receptors (Rattus norvegicus, UniProt Q9QYN8); assay: Rat H3 binding (3H-N-methylhistamine displacement, rat frontal brain membranes); conditions: radioligand 1 nM 3H-N-methylhistamine, 1 hour incubation
T1 construct: Frozen rat frontal brain or frozen human post-mortem frontal brain is homogenized; from tissue; host or cells: rat frontal brain membranes
T1 sequence (Q9QYN8 whole entry): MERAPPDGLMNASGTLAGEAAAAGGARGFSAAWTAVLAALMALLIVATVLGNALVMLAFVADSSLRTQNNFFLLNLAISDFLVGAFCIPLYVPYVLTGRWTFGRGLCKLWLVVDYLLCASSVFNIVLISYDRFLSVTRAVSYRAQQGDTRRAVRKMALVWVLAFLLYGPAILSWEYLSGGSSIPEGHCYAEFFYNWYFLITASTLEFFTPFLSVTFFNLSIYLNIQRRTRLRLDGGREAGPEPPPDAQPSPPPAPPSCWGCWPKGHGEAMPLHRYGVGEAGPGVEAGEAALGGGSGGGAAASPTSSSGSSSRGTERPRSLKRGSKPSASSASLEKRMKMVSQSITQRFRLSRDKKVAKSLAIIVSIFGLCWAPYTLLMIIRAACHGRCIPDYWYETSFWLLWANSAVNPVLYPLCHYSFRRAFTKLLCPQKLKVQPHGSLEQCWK
Protocol: The in vitro affinity of the compounds in the present invention at the rat or human histamine H3 receptors can be determined according to the following procedure. Frozen rat frontal brain or frozen human post-mortem frontal brain is homogenized in 20 volumes of cold 50 mM Tris HCl containing 2 mM MgCl2 (pH to 7.4 at 4 degrees C.). The homogenate is then centrifuged at 45,000 G for 10 minutes. The supernatant is decanted and the membrane pellet re-suspended by Polytron in cold 50 mM Tris HCl containing 2 mM MgCl2 (pH to 7.4 at 4 degrees C.) and centrifuged again. The final pellet is re-suspended in 50 mM Tris HCl containing 2 mM MgCl2 (pH to 7.4 at 25 degrees C.) at a concentration of 12 mg/mL. Dilutions of compounds are made in 10% DMSO/50 mM Tris buffer (pH 7.4) (at 10×final concentration, so that the final DMSO concentration is 1%). Incubations are initiated by the addition of membranes (200 microliters) to 96 well V-bottom polypropylene plates containing 25 microliters of drug dilutions and 25 microliters of radioligand (1 nM final concentration ^3H—N-methylhistamine). After a 1 hour incubation, assay samples are rapidly filtered through Whatman GF/B filters and rinsed with ice-cold 50 mM Tris buffer (pH 7.4) using a Skatron cell harvester. Radioactivity is quantified using a BetaPlate scintillation counter.

| SMILES | Ki [nM] |
| --- | --- |
| CC(c1ccc(-c2ccc(-c3cncnc3)cc2F)cc1)N1CCCC1 (stereo not drawn) [Example 94, 5-[2-Fluoro-4′-(1-pyrrolidin-1-ylethyl)-biphenyl-4-yl]-pyrimidine] | 23 |
| C[C@@H](c1ccc(-c2ccc(C3CCNCC3)cc2)cc1)N1CCCC1 [Example 73, (S)-(−)4-[4′-(1-Pyrrolidin-1-ylethyl)-biphenyl-4-yl]-piperidine] | 72.6 |
| CC(c1ccc(-c2ccc(-c3cccnc3)cc2)cc1)N1CCCC1 (stereo not drawn) [Example 9, 3-[4′-(1-Pyrrolidin-1-ylethyl)-biphenyl-4-yl]-pyridine] | 50 |
| CC(c1ccc(-c2ccc(-c3ccncc3)cc2)cc1)N1CCCC1 (racemic) [Example 1, (R)-(±)-4-[4′-(1-Pyrrolidin-1-ylethyl)-biphenyl-4-yl]-pyridine] | 39.4 |
| CC(c1ccc(-c2ccc(-c3cncnc3)cc2)cc1)N1CCCC1 (racemic) [Example 7, (R)-(±)-5-[4′-(1-Pyrrolidin-1-ylethyl)-biphenyl-4-yl]-pyrimidine] | 22.7 |
| CC(c1ccc(-c2ccc(-c3ccc(S(C)(=O)=O)cc3)cc2)cc1)N1CCCC1 (stereo not drawn) [Example 35, 1-[1-(4-Methanesulfonyl-[1,1′;4′,1″]terphenyl-4″-yl)-ethyl]-pyrrolidine] | 22.7 |
| COc1ncc(-c2ccc(-c3ccc([C@@H](C)N4CCCC4)cc3)cc2)c(OC)n1 [Example 5, (R)-2,4-Dimethoxy-5-[4′-(1-pyrrolidin-1-ylethyl)-biphenyl-4-yl]-pyrimidine] | 45 |
| CC(c1ccc(-c2ccc(-c3ccccc3C(=O)N(C(C)C)C(C)C)cc2)cc1)N1CCCC1 (stereo not drawn) [Example 28, 4″-(1-Pyrrolidin-1-ylethyl)-[1,1′;4′,1″]terphenyl-2-carboxylic acid diisopropylamide] | 13.6 |
| C[C@H](c1ccc(-c2ccc(C3CCN(C)CC3)cc2)cc1)N1CCCC1 [Example 77, (R)-1-Methyl-4-[4′-(1-Pyrrolidin-1-ylethyl)-biphenyl-4-yl]-piperidine] | 24.3 |

Second part, the compound after the results:

| Ki [nM] | SMILES |
| --- | --- |
| 10 | CC(c1ccc(-c2ccc(C3CCNCC3)cc2)cc1)N1CCCC1 (racemic) [Example 74, (±)-4-[4′-(1-Pyrrolidin-1-yl-ethyl)-biphenyl-4-yl]-piperidine] |
| 52 | CC(c1ccc(-c2ccc(-c3ccncc3)cc2)cc1)N1CCCC1 (stereo not drawn) [Example 24, 4-[4′-(1-Pyrrolidin-1-ylethyl)-biphenyl-4-yl]-pyridine] |
| 61.8 | CC(c1ccc(-c2ccc(-c3cncnc3)cc2)cc1)N1CCCC1 (racemic) [Example 6, (±)-5-[4′-(1-Pyrrolidin-1-ylethyl)-biphenyl-4-yl]-pyrimidine] |
| 105 | CC(c1ccc(-c2ccc(-c3cnc(N)nc3)cc2)cc1)N1CCCC1 (stereo not drawn) [Example 93, 5-[4′-(1-Pyrrolidin-1-ylethyl)-biphenyl-4-yl]-pyrimidin-2-ylamine] |
| 3.5 | CC(c1ccc(-c2ccc(C3CCNCC3)cc2)cc1)N1CCCC1 (racemic) [Example 72, (R)-(±)-4-[4′-(1-Pyrrolidin-1-ylethyl)-biphenyl-4-yl]-piperidine] |
| 42 | COc1ncc(-c2ccc(-c3ccc(C(C)N4CCCC4)cc3)cc2)cn1 (stereo not drawn) [Example 92, 2-Methoxy-5-[4′-(1-pyrrolidin-1-ylethyl)-biphenyl-4-yl]-pyrimidine] |
| 35.8 | C[C@H](c1ccc(-c2ccc(-c3cccnc3)cc2)cc1)N1CCCC1 [Example 4] |
| > 140 | CC(c1ccc(-c2ccc(-c3ccncc3)cc2)cc1)N(C)C (stereo not drawn) [Example 39, Dimethyl-[1-(4′-pyridin-4-ylbiphenyl-4-yl)-ethyl]-amine] |
| 14.7 | Cc1cc(C2CCCN2C)ccc1-c1ccc(CNCc2ccc(Cl)cc2)cc1 (stereo not drawn) [Example 96, (4-Chlorobenzyl)-[2′-methyl-4′-(1-methylpyrrolidin-2-yl)-biphenyl-4-ylmethyl]-amine] |
| 38 | CC(c1ccc(-c2ccc(-c3cnc(Cl)nc3)cc2)cc1)N1CCCC1 (stereo not drawn) [Example 91, 2-Chloro-5-[4′-(1-pyrrolidin-1-ylethyl)-biphenyl-4-yl]-pyrimidine] |
| 44 | CC(c1ccc(-c2ccc(-c3cnc(O)nc3)cc2)cc1)N1CCCC1 (stereo not drawn) [Example 90, 5-[4′-(1-Pyrrolidin-1-ylethyl)-biphenyl-4-yl]-pyrimidin-2-ol] |
| 13.9 | Cc1cc(C2CCCN2C)ccc1-c1ccc(CN2CCCCC2)cc1 (stereo not drawn) [Example 79, 1-[2′-Methyl-4′-(1-methylpyrrolidin-2-yl)-biphenyl-4-ylmethyl]-piperidine] |
| 137 | C[C@@H](c1ccc(-c2ccc(-c3ccncc3)cc2)cc1)N1CCCC1 [Example 2, (S)-(−)-4-[4′-(1-Pyrrolidin-1-ylethyl)-biphenyl-4-yl]-pyridine] |
| 25.2 | CC(c1ccc(-c2ccc(-c3cncnc3)cc2)cc1)N1CCCC1 (stereo not drawn) [Example 20, 5-[4′-(1-Pyrrolidin-1-ylethyl)-biphenyl-4-yl]-pyrimidine] |
| 21.3 | CCN1CCC(c2ccc(-c3ccc([C@@H](C)N4CCCC4)cc3)cc2)CC1 [Example 78, (R)-1-Ethyl-4-[4′-(1-pyrrolidin-1-ylethyl)-biphenyl-4-yl]-piperidine] |

system: not given; assay: not given; conditions: not given

| melting point [°C] | SMILES |
| --- | --- |
| 179.9 to 181.3 | CC(c1ccc(-c2ccc(-c3cncnc3)cc2F)cc1)N1CCCC1 (stereo not drawn) (as salt: HCl) [Example 94, 5-[2-Fluoro-4′-(1-pyrrolidin-1-ylethyl)-biphenyl-4-yl]-pyrimidine] |
| 237.1 to 240 | Cc1cc(C2CCCN2C)ccc1-c1ccc(CN2CCCCC2)cc1 (stereo not drawn) (as salt: HCl) [Example 79, 1-[2′-Methyl-4′-(1-methylpyrrolidin-2-yl)-biphenyl-4-ylmethyl]-piperidine] |
| 238.2 to 239.3 | Cc1cc(C2CCCN2C)ccc1-c1ccc(CNCc2ccc(Cl)cc2)cc1 (stereo not drawn) (as salt: hydrochloride) [Example 96, (4-Chlorobenzyl)-[2′-methyl-4′-(1-methylpyrrolidin-2-yl)-biphenyl-4-ylmethyl]-amine] |
